According to the supplement of paper PMC4862054:

What was measured:
[1] = test system: CAL-148; details: 72 h
In short: (§1)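 Viability of breast cancer cell lines was measured with CellTiter-Blue after 72 h of incubation on compound-loaded 384-well plates. Cells were seeded in 20 µl onto compound dissolved in 5 µl medium, and 2.5 µl reagent was added for 2 h at 37 °C before reading at 560/590 nm. EC50 was fitted from percent-inhibition dose-response data censored at the highest concentration, normalised per plate to vehicle and a positive kill control, with zero drug sensitivity score rows dropped.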

[2] = test system: CAL-51; details: 72 h
In short: as §1

[3] = test system: BT-474; assay: normalised viability (% of control), CellTiter-Blue; higher = more viable cells (about 100 = DMSO control); details: 100 nM; incubation time: 72 h
Method: (§2)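 DSRT, CellTiter-Blue viability, 72 h incubation. Signal is normalised to DMSO and benzethonium chloride controls. Value is the normalised response at dose 3.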

[4] = test system: BT-549; assay: as above; details: 100 nM; incubation time: 72 h
Method: as §2

[5] = test system: CAL-120; assay: as above; details: 100 nM; incubation time: 72 h
Method: as §2

[6] = test system: CAL-148; assay: as above; details: 10 nM; incubation time: 72 h
Method: as §2

[7] = test system: CAL-51; assay: as above; details: 10 nM; incubation time: 72 h
Method: as §2

[8] = test system: CAL-85-1; assay: as above; details: 10 nM; incubation time: 72 h
Method: as §2

[9] = test system: DU-4475; assay: as above; details: 10 nM; incubation time: 72 h
Method: as §2

[10] = test system: HCC1143; assay: as above; details: 100 nM; incubation time: 72 h
Method: as §2

[11] = test system: HCC1599; assay: as above; details: 100 nM; incubation time: 72 h
Method: as §2

[12] = test system: HCC1937; assay: as above; details: 100 nM; incubation time: 72 h
Method: as §2

[13] = test system: HDQ-P1; assay: as above; details: 10 nM; incubation time: 72 h
Method: as §2

[14] = test system: Hs578T; assay: as above; details: 100 nM; incubation time: 72 h
Method: as §2

[15] = test system: MDA-MB-231; assay: as above; details: 100 nM; incubation time: 72 h
Method: as §2

[16] = test system: MDA-MB-436; assay: as above; details: 100 nM; incubation time: 72 h
Method: as §2

[17] = test system: MDA-MB-453; assay: as above; details: 10 nM; incubation time: 72 h
Method: as §2

[18] = test system: MDA-MB-468; assay: as above; details: 100 nM; incubation time: 72 h
Method: as §2

[19] = test system: MFM-223; assay: as above; details: 100 nM; incubation time: 72 h
Method: as §2

[20] = test system: SK-BR-3; assay: as above; details: 100 nM; incubation time: 72 h
Method: as §2

[21] = test system: BT-474; assay: normalised viability (% of control), CellTiter-Blue; higher = more viable cells (about 100 = DMSO control); details: incubation time: 72 h
In short: (§3)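 384-well plates were pre-loaded with compound in 5 µl medium before 20 µl of breast cancer cell suspension was seeded. Following 72 h incubation, 2.5 µl CellTiter-Blue reagent was added for 2 h at 37 °C. Fluorescence was read at 560/590 nm and plates were normalised to vehicle (100) and a positive kill control (0), checked by Z'-factor. Normalised viability is reported at a single listed concentration of the series.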

[22] = test system: CAL-51; assay: as above; details: incubation time: 72 h
In short: as §3

[23] = test system: CAL-85-1; assay: as above; details: incubation time: 72 h
In short: as §3

[24] = test system: DU-4475; assay: as above; details: incubation time: 72 h
In short: as §3

[25] = test system: MDA-MB-231; assay: as above; details: incubation time: 72 h
In short: as §3

[26] = test system: MDA-MB-436; assay: as above; details: incubation time: 72 h
In short: as §3

[27] = test system: MDA-MB-453; assay: as above; details: incubation time: 72 h
In short: as §3

[28] = test system: MFM-223; assay: as above; details: incubation time: 72 h
In short: as §3

Nc1ccn([C@@H]2O[C@H](CO)[C@@H](O)[C@@H]2O)c(=O)n1 [Cytarabine]
Details	EC50, CellTiter-Blue viability [nM]	normalised viability [%]
[1]	32.3	–
[2]	266	–
[3]	–	101
[4]	–	67.9
[5]	–	82.4
[6]	–	86.6
[7]	–	94.4
[8]	–	110
[9]	–	137
[10]	–	86
[11]	–	110
[12]	–	76.3
[13]	–	94.6
[14]	–	65.1
[15]	–	86.3
[16]	–	91.9
[17]	–	109
[18]	–	95.1
[19]	–	103
[20]	–	81.2

normalised viability [%]
Details	[21]	[22]	[23]	[24]	[25]	[26]	[27]	[28]
3 nM	–	94.1	106	121	–	–	101	–
10 nM	103	–	–	–	100	98.2	–	107
30 nM	–	91.9	97.4	87.8	–	–	111	–
100 nM	–	79.8	104	93.9	–	–	94.9	–
1000 nM	95.7	–	–	–	67	74.3	–	95.6
10000 nM	93.4	–	–	–	61.7	74.1	–	97.3

S=c1[nH]cnc2nc[nH]c12 [Mercaptopurine]
Details	EC50, CellTiter-Blue viability [nM]	normalised viability [%]
[2]	3810	–
[3]	–	111
[4]	–	106
[5]	–	90.2
[6]	–	94.1
[7]	–	108
[8]	–	93.9
[9]	–	130
[10]	–	92
[11]	–	93.5
[12]	–	104
[13]	–	106
[14]	–	113
[15]	–	99.8
[16]	–	121
[17]	–	113
[18]	–	108
[19]	–	93.6
[20]	–	94

normalised viability [%]
Details	[21]	[22]	[23]	[24]	[25]	[26]	[27]	[28]
3 nM	–	105	101	103	–	–	116	–
10 nM	116	–	–	–	101	89.8	–	101
30 nM	–	101	91.8	87.6	–	–	98.1	–
100 nM	–	106	103	87.8	–	–	110	–
1000 nM	108	–	–	–	95.9	74.1	–	94
10000 nM	112	–	–	–	88.7	83	–	103

C=CC[C@@H]1/C=C(\C)C[C@H](C)C[C@H](OC)[C@H]2O[C@@](O)(C(=O)C(=O)N3CCCC[C@H]3C(=O)O[C@H](/C(C)=C/[C@@H]3CC[C@@H](O)[C@H](OC)C3)[C@H](C)[C@@H](O)CC1=O)[C@H](C)C[C@@H]2OC [Tacrolimus]
Details	normalised viability [%]
[3]	113
[4]	102
[5]	110
[6]	102
[7]	101
[8]	101
[9]	112
[10]	110
[11]	123
[12]	93.7
[13]	119
[14]	109
[15]	112
[16]	108
[17]	112
[18]	119
[19]	99.2
[20]	91.8

normalised viability [%]
Details	[21]	[22]	[23]	[24]	[25]	[26]	[27]	[28]
3 nM	–	108	104	99.8	–	–	112	–
10 nM	125	–	–	–	109	116	–	112
30 nM	–	103	92.1	90.9	–	–	96.8	–
100 nM	–	97.7	98.5	99.5	–	–	103	–
1000 nM	108	–	–	–	105	104	–	109
10000 nM	114	–	–	–	113	108	–	87.6

C[C@]1(c2nc3c(C(N)=O)cccc3[nH]2)CCCN1 [Veliparib]
Details	normalised viability [%]
[3]	101
[4]	104
[5]	74.8
[6]	89.1
[7]	113
[8]	90.8
[9]	98.2
[10]	75.6
[11]	116
[12]	85.4
[13]	103
[14]	76.7
[15]	92.3
[16]	84.1
[17]	99.4
[18]	97.6
[19]	89.9
[20]	72.5

normalised viability [%]
Details	[21]	[22]	[23]	[24]	[25]	[26]	[27]	[28]
3 nM	–	114	87.9	78.6	–	–	109	–
10 nM	101	–	–	–	80.8	83.3	–	88.1
30 nM	–	105	84.9	78.3	–	–	98.9	–
100 nM	–	106	84.7	83.4	–	–	94.4	–
1000 nM	103	–	–	–	90.3	89.1	–	90.3
10000 nM	104	–	–	–	94.8	84.6	–	103

CS(=O)(=O)c1ccc(C(=O)Nc2ccc(Cl)c(-c3ccccn3)c2)c(Cl)c1 [Vismodegib]
Details	normalised viability [%]
[3]	101
[4]	112
[5]	87.7
[6]	96.8
[7]	103
[8]	114
[9]	108
[10]	87.7
[11]	86.2
[12]	107
[13]	105
[14]	80.1
[15]	94
[16]	85.6
[17]	108
[18]	113
[19]	104
[20]	66.7

normalised viability [%]
Details	[21]	[22]	[23]	[24]	[25]	[26]	[27]	[28]
3 nM	–	114	97.9	107	–	–	106	–
10 nM	102	–	–	–	115	90.9	–	92.4
30 nM	–	104	93.7	110	–	–	113	–
100 nM	–	106	109	110	–	–	104	–
1000 nM	118	–	–	–	97.7	23.6	–	108
10000 nM	77.5	–	–	–	92	76	–	99.6
